Some test systems named below: A549; ACHN; CAKI-1; DU-145; HCT-15; HOP-62; HT-29; K562; KM12; LOX IMVI; M14; MDA-N; NCI-H226; OVCAR-4; SK-MEL-2; SK-MEL-5; SK-OV-3; TK-10; UACC-257; SR.
Assay in all cases: NCI tumour cell line growth inhibition, 48 h

These results are taken from ChEMBL document CHEMBL1201862, “PubChem BioAssay data set” (2004).

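How tested: cells in 96-well plates exposed to compound for 48 hours at five concentrations. Here, GI50 denotes the concentration required for 50% inhibition of growth.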 Active and inactive are the calls of the source. Rule as the data show it: active = GI50 up to about 1.1 µM and inactive = higher.

For `Cc1nc(=O)[nH]c2s/c(=N/C3CCCCC3)n(C3CCCCC3)c(=O)c12`, the GI50 in the assay on A549 was > 100 µM (inactive); in the assay with ACHN it was > 100 µM (inactive); in the assay on CAKI-1 it was > 100 µM (inactive); with DU-145 it was > 100 µM (inactive); with HCT-15, greater than 100 µM; in the assay with HOP-62 it was > 100 µM (inactive). The GI50 in the assay on HT-29, in the assay with K562, in the assay with KM12, in the assay on LOX IMVI, in the assay with M14 and in the assay with MDA-N was > 100 µM (inactive) in each case. For the same compound, the GI50 with NCI-H226, with OVCAR-4, with SK-MEL-2, with SK-MEL-5, with SK-OV-3 and with TK-10 was > 100 µM (inactive) throughout. In the assay with UACC-257, the GI50 was > 100 µM (inactive).

Turning to `N#CC(C#N)=Cc1ccc2c(c1)OC(Cl)O2` (stereo not given), the GI50 with A549 was 38.8 µM (inactive); in the assay on ACHN it was 19.9 µM (inactive); in the assay with CAKI-1, > 100 µM (inactive); in the assay with DU-145 it was 27.7 µM (inactive); with HCT-15, 19.9 µM; in the assay with HT-29, 23.8 µM (inactive). Further, the GI50 with K562 is 11.8 µM (inactive); in the assay with KM12, 20.4 µM (inactive); in the assay with LOX IMVI it was 18.4 µM (inactive); in the assay on M14, 21.4 µM (inactive); in the assay with MDA-N it was 16 µM (inactive); with NCI-H226 it was 20.2 µM (inactive). For the same compound, the GI50 in the assay on OVCAR-4 is 42.2 µM (inactive); with SK-MEL-2 it was 21.9 µM (inactive); in the assay with SK-MEL-5, 19.1 µM (inactive); in the assay on SK-OV-3, 28.5 µM (inactive); with TK-10, 29.6 µM (inactive); in the assay with UACC-257 it was 21.7 µM (inactive).

As to `CCOC(=O)NC(C(F)(F)F)(C(F)(F)F)P(=O)(OCC)OCC`, the GI50 was 35.9 µM (inactive) in the assay on ACHN; > 100 µM (inactive) with DU-145; 28.8 µM in the assay on HCT-15; 78.9 µM (inactive) in the assay on HOP-62; 27.5 µM (inactive) in the assay with HT-29; 10.9 µM (inactive) in the assay with K562. Besides, the GI50 in the assay on KM12 is 43.9 µM (inactive); in the assay on LOX IMVI it was 12.4 µM (inactive); in the assay with M14, 25.9 µM (inactive); in the assay with MDA-N, 29.2 µM (inactive); in the assay with NCI-H226 it was 54.1 µM (inactive); in the assay on OVCAR-4, 18.7 µM (inactive). The figures for the GI50 in the assay with SK-OV-3, in the assay with SR and with TK-10 were 34.9 µM (inactive), > 10 µM (inactive) and 82 µM (inactive), respectively.

On to `CCCCC1=C(C(=O)N2CCOCC2)C2(OCCO2)C1Cl` (stereo not given), for which the GI50 was 20.6 µM (inactive) in the assay with A549; 20 µM (inactive) in the assay on ACHN; 29.2 µM (inactive) with CAKI-1; 44.5 µM (inactive) in the assay with DU-145; 26.9 µM in the assay on HCT-15; 35.2 µM (inactive) with HOP-62. Moreover, the GI50 in the assay on HT-29 was 24.4 µM (inactive); with KM12, 20.7 µM (inactive); with LOX IMVI, 28.2 µM (inactive); with M14, 16.9 µM (inactive); in the assay with MDA-N it was 14.8 µM (inactive); with NCI-H226 it was 35.8 µM (inactive). In addition, the GI50 in the assay on OVCAR-4 is 28.8 µM (inactive); with SK-MEL-2, 19.8 µM (inactive); with SK-MEL-5, 18.5 µM (inactive); in the assay on SK-OV-3, 26 µM (inactive); in the assay on TK-10 it was 29.9 µM (inactive); in the assay with UACC-257 it was 24.3 µM (inactive).

Turning to `CCOC(=O)c1c(N2CCOCC2)ncn(-c2cccc(Cl)c2)c1=O`, the GI50 with A549 is > 100 µM (inactive); in the assay on ACHN it was > 100 µM (inactive); with CAKI-1, > 100 µM (inactive); in the assay on DU-145, > 100 µM (inactive); with HCT-15, greater than 100 µM; in the assay with HOP-62, > 100 µM (inactive). In addition, the GI50 with HT-29, with K562, in the assay on KM12, in the assay on LOX IMVI, with M14 and in the assay on MDA-N was > 100 µM (inactive) in each case. Moreover, the GI50 in the assay on NCI-H226, in the assay with OVCAR-4, with SK-MEL-2, in the assay on SK-OV-3, in the assay on TK-10 and in the assay on UACC-257 was > 100 µM (inactive) throughout.

Regarding `CC[C@@H]1C[C@@H](O)[C@@H]2[C@H](O)[C@H](O)CN2C1`, the GI50 in the assay with A549 is > 100 µM (inactive); with ACHN, > 100 µM (inactive); in the assay on CAKI-1, > 100 µM (inactive); with DU-145, > 100 µM (inactive); in the assay on HCT-15, greater than 100 µM; in the assay with HT-29, > 100 µM (inactive). Further, the GI50 in the assay on K562, in the assay on KM12, with LOX IMVI, with M14, in the assay on MDA-N and with NCI-H226 was > 100 µM (inactive) each time. The GI50 in the assay on OVCAR-4, with SK-MEL-2, with SK-MEL-5, with SK-OV-3, with TK-10 and in the assay with UACC-257 was > 100 µM (inactive) throughout.

Take `N=C(N)C1CN(CC=O)C(=O)NC1=O` (stereo not given): the GI50 is > 100 µM (inactive) with A549; > 100 µM (inactive) in the assay on ACHN; > 100 µM (inactive) in the assay on DU-145; greater than 100 µM in the assay on HCT-15; > 100 µM (inactive) in the assay with HOP-62; > 100 µM (inactive) in the assay on HT-29. Moreover, the GI50 with K562, in the assay on LOX IMVI, in the assay with M14, with MDA-N, with NCI-H226 and with OVCAR-4 was > 100 µM (inactive) each time. The GI50 with SK-MEL-5, in the assay on SK-OV-3, with SR, in the assay on TK-10 and in the assay on UACC-257 was > 100 µM (inactive) each time.

`NC(=S)NS(=O)(=O)c1ccc(F)cc1F`: the GI50 is > 100 µM (inactive) with A549; > 100 µM (inactive) in the assay on ACHN; > 100 µM (inactive) in the assay on CAKI-1; > 100 µM (inactive) in the assay with DU-145; greater than 100 µM in the assay with HCT-15; > 100 µM (inactive) with HOP-62. In addition, the GI50 in the assay on HT-29, with K562, in the assay on KM12, with LOX IMVI, in the assay on M14 and with MDA-N was > 100 µM (inactive) throughout. For the same compound, the GI50 in the assay with NCI-H226, in the assay with OVCAR-4, with SK-MEL-2, in the assay with SK-MEL-5, in the assay on SK-OV-3 and in the assay on TK-10 was > 100 µM (inactive) each time. In addition, in the assay on UACC-257, the GI50 is > 100 µM (inactive).

Regarding `CN1Cc2ccccc2/C=C\c2ccccc21`, the GI50 is 50.1 µM (inactive) with A549; > 100 µM (inactive) in the assay with ACHN; 40.9 µM (inactive) with CAKI-1; > 100 µM (inactive) in the assay with DU-145; 52.4 µM with HCT-15; > 100 µM (inactive) in the assay on HOP-62. The GI50 with HT-29 was 28.1 µM (inactive); in the assay with KM12, 52.4 µM (inactive); in the assay on LOX IMVI, 72.9 µM (inactive); in the assay with M14, 46.8 µM (inactive); with MDA-N it was 42.2 µM (inactive); with NCI-H226, > 100 µM (inactive). In addition, the GI50 in the assay with OVCAR-4 is 38.5 µM (inactive); in the assay with SK-MEL-2 it was 25.4 µM (inactive); with SK-MEL-5, 40.2 µM (inactive); in the assay with SK-OV-3, 87.3 µM (inactive); in the assay with TK-10, 70.5 µM (inactive); in the assay on UACC-257 it was > 100 µM (inactive).

Turning to `CC(=O)C1C(=O)C(=O)N(c2cccc([N+](=O)[O-])c2)C1=O` (stereo not given), the GI50 in the assay with A549 is > 100 µM (inactive); in the assay with ACHN, > 100 µM (inactive); in the assay on CAKI-1 it was > 100 µM (inactive); with DU-145 it was > 100 µM (inactive); in the assay on HCT-15, greater than 100 µM; in the assay on HOP-62, > 100 µM (inactive). The GI50 with HT-29, in the assay on KM12, in the assay on LOX IMVI, in the assay on M14, in the assay on MDA-N and with NCI-H226 was > 100 µM (inactive) throughout. For the same compound, the GI50 with OVCAR-4, with SK-MEL-2, with SK-MEL-5, in the assay with SK-OV-3, with TK-10 and with UACC-257 was > 100 µM (inactive) throughout.

In the case of `O=C1c2ccccc2-c2oc(=O)c3ccccc3c21`, the GI50 with ACHN is > 100 µM (inactive); in the assay on CAKI-1, > 100 µM (inactive); in the assay on DU-145, > 100 µM (inactive); in the assay on HCT-15, greater than 100 µM; in the assay with HOP-62 it was > 100 µM (inactive); in the assay with HT-29 it was > 100 µM (inactive). Moreover, the GI50 with KM12, with LOX IMVI, in the assay with M14, with MDA-N, in the assay on NCI-H226 and in the assay with OVCAR-4 was > 100 µM (inactive) each time. For the same compound, the GI50 in the assay with SK-MEL-2, in the assay on SK-MEL-5, in the assay on SK-OV-3, in the assay with TK-10 and in the assay on UACC-257 was > 100 µM (inactive) in each case.
